Results: patent US20100323990A1, “SHIP 1 MODULATOR PRODRUGS” (THE UNIVERSITY OF BRITISH COLUMBIA, priority 2006, published 2010)

How the values were obtained:
ΔC2 SHIP [1] = target: T1, ΔC2 SHIP (Homo sapiens, UniProt Q92835, DEL725-863); assay: SHIP enzyme assay with C2 domain deleted SHIP; assay type: biochemical; conditions: PI-3,4-P2 20 μM, Compound 100 3 μM, 30 μM IP4
T1 construct: His6; made in house; host or cells: mammalian expression vector pME18S
T1 sequence (Q92835 with tags, fused parts or gaps DEL725-863): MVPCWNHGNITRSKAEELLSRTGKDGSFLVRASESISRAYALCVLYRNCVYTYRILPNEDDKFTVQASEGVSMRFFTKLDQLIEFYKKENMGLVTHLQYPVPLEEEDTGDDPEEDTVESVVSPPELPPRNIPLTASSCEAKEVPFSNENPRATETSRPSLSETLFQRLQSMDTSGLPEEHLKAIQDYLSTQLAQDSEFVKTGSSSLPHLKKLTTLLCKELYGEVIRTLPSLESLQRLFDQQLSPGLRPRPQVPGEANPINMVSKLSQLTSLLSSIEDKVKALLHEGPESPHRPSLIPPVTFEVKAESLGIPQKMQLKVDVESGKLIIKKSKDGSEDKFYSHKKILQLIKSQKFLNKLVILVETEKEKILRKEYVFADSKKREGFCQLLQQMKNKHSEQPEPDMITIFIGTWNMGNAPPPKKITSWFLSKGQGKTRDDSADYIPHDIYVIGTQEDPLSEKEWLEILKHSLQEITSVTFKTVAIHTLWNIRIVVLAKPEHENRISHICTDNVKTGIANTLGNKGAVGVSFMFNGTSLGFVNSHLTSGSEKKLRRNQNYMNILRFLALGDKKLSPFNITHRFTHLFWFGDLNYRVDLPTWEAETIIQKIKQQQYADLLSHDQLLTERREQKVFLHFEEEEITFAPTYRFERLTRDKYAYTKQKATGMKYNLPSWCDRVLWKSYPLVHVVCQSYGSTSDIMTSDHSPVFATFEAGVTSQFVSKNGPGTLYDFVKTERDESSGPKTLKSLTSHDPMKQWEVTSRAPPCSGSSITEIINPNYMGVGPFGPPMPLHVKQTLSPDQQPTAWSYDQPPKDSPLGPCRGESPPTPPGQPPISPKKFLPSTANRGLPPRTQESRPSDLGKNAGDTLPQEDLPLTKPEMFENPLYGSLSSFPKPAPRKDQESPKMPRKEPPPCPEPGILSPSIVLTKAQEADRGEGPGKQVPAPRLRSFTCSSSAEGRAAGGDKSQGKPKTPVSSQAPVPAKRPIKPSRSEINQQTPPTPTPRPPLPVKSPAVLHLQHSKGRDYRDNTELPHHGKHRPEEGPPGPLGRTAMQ
Text: A His6 tagged SHIP ΔC2 domain deletion mutant (deleting residues 725 to 863) in the mammalian expression vector pME18S was generated by a standard PCR-based methodology. An N-terminal His6 C2 domain construct was also generated by PCR inserted into the pET28C bacterial expression vector using EcoRI and NdeI restriction sites.
The allosteric regulation of enzymes has remained under-appreciated primarily because allosteric effectors are not easy to find. The molecular mechanism by which Compound 100 activated SHIP was investigated, first by performing classical enzyme kinetic analysis of its phosphatase activity. Activity measurements were performed with substrate concentrations from 10-100 μM.
The SHIP protein contains a C2 domain located at the carboxyterminal end of its phosphatase domain. […] SHIP lacking its the C2 domain (ΔC2 SHIP) was prepared.

SHIP C2 domain = assay: Protein lipid overlay assay, C2 domain binding to PI-3,4-P2; conditions: 4 μM Compound 100, 30 min at 23° C.
Experimental: Protein lipid overlay (PLO) assays were performed essentially as described with minor modifications. Lyophilized phosphatidylinositol-3,4-bisphosphate diC16 (PIP2, Echelon Biosciences, Salt Lake City, Utah) was reconstituted in a 2:1.8 solution of methanol and water. PVDF membranes (Millipore, Missisauga, Ont) were initially wetted in methanol for 1 minute, and washed 3×5 min with water, and gently agitated in TBST buffer (20 mM Tris pH 7.5, 0.15 M NaCl (TBS) with 0.05% Tween 20) at 23° C. overnight. Treated membranes were air-dried and dilutions of reconstituted lipids were spotted in 1 μl aliquots to give the indicated amount of PIP2 per membrane spot. Membranes were dried completely and blocked with blocking buffer (3% BSA in TBS with 0.05% NaN3) for 1 h at 23° C. Purified, recombinant C2 domain was diluted into blocking buffer (5 μM final) and treated with 4 μM Compound 100 or EtOH control for 30 min at 23° C. prior to overnight incubation with the PIP2 spotted membranes. […] After washing, bound proteins were detected and quantified on a Li-Cor Odyssey scanner (Lincoln, Nebr.).
Isolated recombinant, His6-tagged C2 domain was expressed and its PI-3,4-P2 binding ability was determined using protein lipid overlay assays. Purified C2 domain was incubated with membrane strips spotted with PI-3,4-P2 and bound protein detected using an anti-His6 antibody. […]

ΔC2 SHIP [2] = target: T1, ΔC2 SHIP; assay: Scintillation proximity assay, SHIP lacking its C2 domain; assay type: binding; conditions: SPA beads
Experimental: Compound 100 was radiolabelled with tritium by GE Healthcare (Piscataway, N.J.) to a specific activity of 42 Ci/mmole. Copper chelate (His-Tag) YSi SPA Scintillation Beads (GE ealthcare, Piscataway, N.J.) were diluted in 0.25% BSA/TBS to 1.5 mg/mL and recombinant, His6-tagged protein added at the indicated concentrations: wild-type (1 pM), ΔC2 SHIP enzyme (1 pM) or C2 domain (10 nM). Protein was allowed to bind 1 h at 23° C., and 250 μg of beads were aliquoted per well of a 96-well plate. 5 μCi of [^3H]-Compound 100 was added per well, the plate gently agitated for 30 min and the amount of bead associated radioactivity quantified by counting in a Wallac BetaPlate plate scintillation counter.
Isolated recombinant, His6-tagged C2 domain was expressed and its PI-3,4-P2 binding ability was determined using protein lipid overlay assays. Purified C2 domain was incubated with membrane strips spotted with PI-3,4-P2 and bound protein detected using an anti-His6 antibody. As shown in FIG. 11C the C2 domain bound PI-3,4-P2 and this binding was inhibited by Compound 100, consistent with both Compound 100 and PI-3,4-P2 interacting with the C2 domain at a common binding site.

enhancement of ΔC2 SHIP activity (ΔC2 SHIP [1]): could not be enhanced
binding of C2 domain to PI-3,4-P2 (SHIP C2 domain): inhibited
binding of [3H]-Compound 100 to SHIP lacking its C2 domain (ΔC2 SHIP [2]): not to SHIP lacking its C2 domain
SMILES: Cc1cc(O)cc2c1[C@]1(C)CCC3C(C)(C)CCC[C@]3(C)[C@H]1C2 (stereo partly drawn) [Compound 100]
